Measured values from patent US4738954A, “Novel N^6 -substituted-5'-oxidized adenosine analogs” (Warner-Lambert Company, priority 1985, dated 1988).

Experiments:
[1] = target: T1, adenosine A1 receptor (Rattus norvegicus, UniProt P25099); experiment: Adenosine Receptor Binding--A1 Receptor Affinity (RBA1), [3H]-CHA displacement; settings: 1.0 nM [3H]-CHA, rat brain, 25° C, 1 h; read-out: RBA-1 (IC50, A1 receptor affinity)
T1 construct: Whole brain minus cerebellum and brainstem from male Long Evans rats; from tissue; host or cells: rat whole brain minus cerebellum and brainstem, membranes
T1 sequence (P25099 1-326): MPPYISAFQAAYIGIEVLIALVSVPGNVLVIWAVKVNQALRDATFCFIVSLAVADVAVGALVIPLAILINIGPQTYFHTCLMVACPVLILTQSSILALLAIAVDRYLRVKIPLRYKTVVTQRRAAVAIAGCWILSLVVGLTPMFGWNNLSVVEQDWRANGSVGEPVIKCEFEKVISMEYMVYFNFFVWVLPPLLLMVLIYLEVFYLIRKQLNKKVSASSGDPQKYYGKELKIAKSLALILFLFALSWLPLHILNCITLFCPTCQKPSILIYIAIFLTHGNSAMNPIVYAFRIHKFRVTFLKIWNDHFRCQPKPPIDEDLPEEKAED
Description: Adenosine Receptor Binding--A1 Receptor Affinity (RBA1)
Whole brain minus cerebellum and brainstem from male Long Evans rats (105-200 g) was homogenized in 30 volumes of ice-cold 0.05M Tris-HCl buffer pH 7.7 using a Brinkman Polytron PT-10, (setting number 6 for 20 seconds) and centrifuged for ten minutes at 20,000×g (Sorvall RC-2), 4° C. The supernatant was discarded, and the pellet was resuspended and centrifuged as before. The pellet was resuspended in 20 ml Tris-HCl buffer containing two International Units/ml of adenosine deaminase (Sigma type III from calf intestinal mucosa), incubated at 37° C. for 30 minutes, then subsequently at 0° C. for ten minutes. The homogenate was again centrifuged, and the final pellet was resuspended in ice-cold 0.05M Tris-HCl buffer pH 7.7 to a concentration of 20 mg/ml original wet tissue weight and used immediately.
Tissue homogenate (10 mg/ml) was incubated in 0.05M Tris-HCl buffer pH 7.7 containing 1.0 nM ((^3 H))-N^6 -cyclohexyladenosine ([^3 H]-CHA) with or without test agents in triplicate for one hour at 25° C. Incubation volume was 2 ml. Unbound [^3 H]-CHA was separated by rapid filtration under reduced pressure through Whatman glass fiber (GF/B) filters. The filters were rinsed three times with 5 ml of ice cold 0.05M Tris-HCl buffer pH 7.7. The radio-labeled ligand retained on the filter was measured by liquid scintillation spectrophotometry after shaking the filters for one hour or longer on a mechanical shaker in 10 ml of Beckman Ready-Solv HP scintillation cocktail.
Nonspecific binding was defined as the binding which occured in the presence of 1 mM theophylline. The concentration of test agent which inhibited 50% of the specific binding (IC50) was determined by nonlinear computer curve fit. The Scatchard plot was calculated by linear regression of the line obtained by plotting the amount of radioligand bound (pmoles/gram of tissue) versus [formula] Since the amount of radioligand bound was a small fraction of the total amount added, free radioligand was defined as the concentration of (nM) of radioligand added to the incubation mixture. The Hill coefficient was calculated by linear regression of the line obtained by plotting the log of the bound radioligand vs the log of the [formula] The maximal number of binding sites (Bmax) was calculated from the Scatchard plot.

[2] = tested on: mean arterial blood pressure and heart rate in the conscious rat; experiment: Antihypertensive evaluation (AHP3): aortic blood pressure and heart rate from conscious rats; format: in vivo
Text: ANTIHYPERTENSIVE EVALUATION (AHP3)
This test procedure is described in the following paragraphs.
A Method for the Direct Monitoring of Aortic Blood Pressure and Heart Rate from Conscious Rats
The continous monitoring of pulsatile blood pressure (BP) from unrestrained conscious rats surgically equipped with polyethylene cannulas was accomplished by means of a computer assisted data capture scheme (CADCS). The basic elements of the methodology are the cannulation procedure and the CADCS.
Rats were anesthetized with Telazol (1:1 tiletamine HCl and zolazepam HCl); 20-40 mg/kg IM and the descending aorta exposed via a midline incision. Cannulas fabricated from polyethylene tubing were inserted into the aorta via an undersized puncture hole below the renal arteries. The puncture hole was made by a 23 G disposable needle with a section of the aorta clamped off above and below the puncture site. The cannulas, consisting of a PE100 (0.86 mm ID) body and a PE50 (0.58 mm ID) tip, were attached to a trocar, inserted through the psoas muscle, and passed subcutaneously along the midline of the back and externalized between the ears. The cannulas were anchored to the psoas muscle and between the scalulae (3-0 green braided suture). The midline incision was closed in two steps (muscle first, skin second) using contiuous over-and over sutures (4-0 chronic). Each rat was then given penicillin 30,000 units subcutaneously (Penicilling G Procaine Sterile Suspension).
The rats were fitted with a harness-spring-swivel assembly designed to protect the cannula and to provide the rat relative freedom of movement. The harnesses were fabricated from nylon hook and loop tape cemented to a metal plate to which spring wires (18-8 stainless steel) were attached to brass swivels. Each polyethylene cannula was channeled through a spring and connected through a swivel to a pressure transducer (Model P23Gb; Statham Instruments; Hato Rey, Puerto Rico) and an infusion pump (Sage model 234-7; Orion Research, Cambridge, MA) by means of PE100 tubing. While on test, each rat received a continuous slow infusion of heparinized saline solution (approximately […] or 40 units of heparin per 24 hours period) to prevent clot formation. Additional "flushes" of the cannula with heparinized saline were carried out when the aortic pluse pressure (systolic minus diastolic) was less than 25 mm Hg.
The pulsatile blood pressure and heart rate of each of 32 rats was monitored every minute by means of two in-laboratory microcomputers communicating directly with a data concentrator computer. The data were first stored on the data concentrator disk and then transferred to a magnetic tape for analysis and report generation by the main research computer. […]

Row | SMILES | IC50 [1] [nM] | MAP (mean arterial pressure) change ([2]; 10 mg/kg, hour 3, conscious rat) [%] | HR (heart rate) change ([2]; 1 mg/kg, hour 5, conscious rat) [%] | MAP (mean arterial pressure) change ([2]; 1 mg/kg, hour 5, conscious rat) [%] | MAP (mean arterial pressure) change ([2]; 10 mg/kg, hour 5, conscious rat) [%]
1 | CCNC(=O)[C@H]1O[C@@H](n2cnc3c(NCC(c4ccccc4)c4ccccc4)ncnc32)[C@H](O)[C@@H]1O [Example 3, N^6-(2,2-diphenylethyl)-adenosine-5'-ethylcarboxamide] | 16 |  | 0 | 0 | 
2 | CCOC(=O)[C@H]1O[C@@H](n2cnc3c(NCC(c4ccccc4)c4ccccc4)ncnc32)[C@H](O)[C@@H]1O [Example 5, N6-(2,2-diphenylethyl)-5-adenosine-5'-ethylcarboxylate] | 291 |  |  |  | 0
3 | CCNC(=O)[C@H]1O[C@@H](n2cnc3c(NCc4cccc5ccccc45)ncnc32)[C@H](O)[C@@H]1O [Example 6, N-6-Naphthylmethyladenosine-5'-ethylcarboxamide] | 49 |  |  |  | 

These reach a lower IC50 [1]. Values come first.

Row | IC50 [1] [nM] | SMILES | MAP (mean arterial pressure) change ([2]; 10 mg/kg, hour 3, conscious rat) [%] | HR (heart rate) change ([2]; 1 mg/kg, hour 5, conscious rat) [%] | MAP (mean arterial pressure) change ([2]; 1 mg/kg, hour 5, conscious rat) [%] | MAP (mean arterial pressure) change ([2]; 10 mg/kg, hour 5, conscious rat) [%]
4 | 4 | CCOC(=O)[C@H]1O[C@@H](n2cnc3c(NC4CC5CCC4C5)ncnc32)[C@H](O)[C@@H]1O (relative stereo) [Example 8, N-6-Norbornyl-adenosine-5'ethylcarboxylate] | 0 |  |  | 
5 | 2 | CCNC(=O)[C@H]1O[C@@H](n2cnc3c(N[C@H](C)Cc4ccccc4)ncnc32)[C@H](O)[C@@H]1O [Example 1, (R)-N-6-[(2-phenyl-1-methyl)ethyl]-adenosine-5'-ethylcarboxamide] |  |  |  | 
